Assay results taken from ChEMBL document CHEMBL3352746, “Synthesis and anticancer activity of quinopimaric and maleopimaric acids’ derivatives” (Bioorg Med Chem, 2014).

Assays:
[1] = Growth inhibition of human Hs 578T cells; assay type: functional
[2] = tested on: NCI-H460; assay: Growth inhibition of human NCI-H460 cells; assay type: functional
[3] = tested on: P388; assay: Antitumor activity against mouse P388 cells implanted in mouse assessed as increase in life span at 10 mg/kg, ip dosed daily for 5 days administered 24 hrs after tumor implantation; assay type: functional; conditions: route intraperitoneal
[4] = tested on: Lewis lung carcinoma cell line; assay: Antitumor activity against mouse LLC cells implanted in mouse assessed as tumor growth inhibition at 40 mg/kg, ip dosed daily for 5 days measured 5 days after treatment termination; assay type: functional; conditions: 120 h, route intraperitoneal, read-out: TGI
[5] = tested on: Lewis lung carcinoma cell line; assay: Antitumor activity against mouse LLC cells implanted in mouse assessed as tumor growth inhibition at 40 mg/kg, ip dosed daily for 5 days measured 1 day after treatment termination; assay type: functional; conditions: route intraperitoneal, read-out: TGI
[6] = tested on: Lewis lung carcinoma cell line; assay: Antitumor activity against mouse LLC cells implanted in mouse assessed as tumor growth inhibition at 40 mg/kg, ip dosed daily for 5 days measured 12 days after treatment termination; assay type: functional; conditions: route intraperitoneal, read-out: TGI
[7] = Antitumor activity against mouse AKATOL cells implanted in mouse assessed as tumor growth inhibition at 40 mg/kg, ip dosed daily for 5 days measured 12 days after treatment termination; assay type: functional; conditions: route intraperitoneal, read-out: TGI
[8] = tested on: Mus musculus; assay: Toxicity in mouse P388 cells implanted mouse assessed as mean ascites volume at 20 mg/kg, ip dosed daily for 5 days administered 24 hrs after tumor implantation; assay type: organism-based; design: dose 20 mg/kg, route intraperitoneal; conditions: in vivo
[9] = tested on: U-251; assay: Growth inhibition of human U251 cells; assay type: functional
[10] = tested on: IGROV-1; assay: Growth inhibition of human IGROV1 cells; assay type: functional
[11] = Growth inhibition of human HCT15 cells; assay type: functional
[12] = tested on: ACHN; assay: Growth inhibition of human ACHN cells; assay type: functional
[13] = tested on: SNB-75; assay: Growth inhibition of human SNB75 cells; assay type: functional
[14] = tested on: NCI-H322M; assay: Growth inhibition of human NCI-H322M cells; assay type: functional
[15] = Growth inhibition of human HOP92 cells; assay type: functional
[16] = tested on: HT-29; assay: Growth inhibition of human HT-29 cells; assay type: functional
[17] = tested on: KM12; assay: Growth inhibition of human KM12 cells; assay type: functional
[18] = Growth inhibition of human HCT116 cells; assay type: functional
[19] = tested on: CCRF-CEM; assay: Growth inhibition of human CCRF-CEM cells; assay type: functional
[20] = read-out: pLC50 (the source's name) (converted)

## COC(=O)[C@]1(C)CCC[C@]2(C)[C@H]3C[C@H]4C(C(C)C)=C[C@]3(CC[C@H]21)[C@@H]1/C(=N/O)CC/C(=N\O)[C@@H]14
[1]
  GI50: 0.01 µM
[1]; [20]
  CC50: 11.2 µM
[1]; read-out: pTGI (converted)
  TGI: 2.04 µM
[2]
  GI50: 2.29 µM
[2]; [20]
  CC50: 46.8 µM
[2]; read-out: pTGI
  TGI: 5.25 µM
[3]
  ILS at 10 mg/kg: -4%
[4]
  inhibition in vivo at 40 mg/kg: 33%
[5]
  inhibition in vivo at 40 mg/kg: 47%
[6]
  inhibition in vivo at 40 mg/kg: 30%
[7]
  inhibition in vivo at 40 mg/kg: 34%
[8]
  Activity: 0.57 mL
[9]
  GI50: 4.07 µM
[9]; [20]
  CC50: 39.8 µM
[9]; read-out: pTGI (converted)
  TGI: 15.1 µM
[10]; IGROV-1
  GI50: 4.57 µM
[10]; IGROV-1, read-out: pLC50 (converted)
  CC50: > 100 µM
[10]; IGROV-1, read-out: pTGI (converted)
  TGI: 21.9 µM
[11]; HCT-15
  GI50: 3.39 µM
[11]; HCT-15, read-out: pLC50 (the source's name) (converted)
  CC50: 39.8 µM
[11]; HCT-15, read-out: pTGI (converted)
  TGI: 12.9 µM
[12]
  GI50: 3.31 µM
[12]; [20]
  CC50: 32.4 µM
[12]; read-out: pTGI (converted)
  TGI: 10.5 µM
[13]
  GI50: 4.9 µM
[13]; [20]
  CC50: 63.1 µM
[13]; read-out: pTGI (converted)
  TGI: 20.4 µM
[14]
  GI50: 2.69 µM
[14]; [20]
  CC50: 20.9 µM
[14]; read-out: pTGI (converted)
  TGI: 6.17 µM
[15]; HOP-92
  GI50: 2.09 µM
[15]; HOP-92, read-out: pLC50 (the source's name) (converted)
  CC50: 39.8 µM
[15]; HOP-92, read-out: pTGI (converted)
  TGI: 5.01 µM
[16]
  GI50: 2.69 µM
[16]; [20]
  CC50: 52.5 µM
[16]; read-out: pTGI (converted)
  TGI: 7.94 µM
[17]
  GI50: 3.39 µM
[17]; [20]
  CC50: 34.7 µM
[17]; read-out: pTGI (converted)
  TGI: 10.7 µM
[18]; HCT-116
  GI50: 2.75 µM
[18]; HCT-116, read-out: pLC50 (the source's name) (converted)
  CC50: 47.9 µM
[18]; HCT-116, read-out: pTGI (converted)
  TGI: 8.51 µM
[19]
  GI50: 2.4 µM
[19]; [20]
  CC50: 50.1 µM
